Assay results published in patent publication US12071404B2, “Aza (indole)-, benzothiophene-, and benzofuran-3-sulfonamides” (UCB Pharma GmbH, priority 2016, dated 2024).

Columns and labels:
GPR17 [1] = target: T1, GPR17 (Homo sapiens, UniProt Q13304); experiment: Calcium mobilization functional assay (GPR17 Ca2+ assay); type: cell-based; parameters: host or cells: Flp-In T-REx CHO; details: CHO hGPR17 cells, inhibition of 50 nM MDL29,951, Calcium 5 dye, FLIPR; read-out: Ca2+ assay pIC50 (converted)
T1 sequence (Q13304 whole entry): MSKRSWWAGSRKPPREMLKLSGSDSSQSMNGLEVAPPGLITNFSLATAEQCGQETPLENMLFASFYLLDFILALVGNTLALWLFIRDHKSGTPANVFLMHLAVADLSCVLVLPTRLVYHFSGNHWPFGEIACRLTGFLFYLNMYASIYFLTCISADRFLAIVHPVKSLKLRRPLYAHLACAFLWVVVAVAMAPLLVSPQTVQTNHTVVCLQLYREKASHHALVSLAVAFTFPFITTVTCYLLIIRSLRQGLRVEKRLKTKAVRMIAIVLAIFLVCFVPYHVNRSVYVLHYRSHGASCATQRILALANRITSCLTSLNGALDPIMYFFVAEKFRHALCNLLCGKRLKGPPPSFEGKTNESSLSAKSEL
Outline: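 pIC50 values were fitted with a 4-parameter logistic curve. They reflect test-compound inhibition of cytosolic Ca2+ release evoked by 50 nM MDL29,951, tracked as Calcium 5 fluorescence at room temperature. Cells were CHO Flp-In T-REx stably carrying human GPR17, induced with doxycycline 1 μg/mL for 16-20 h.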

GPR17 [2] = target: T1, GPR17; experiment: cAMP accumulation functional assay (HTRF, Schild analysis); type: cell-based; parameters: host or cells: Flp-In T-REx CHO; details: CHO hGPR17 cells, Schild analysis vs MDL29,951, 5 μM forskolin, read-out: cAMP assay pA2 (converted)
Procedure: Flp-In T-REx CHO cells stably expressing human GPR17 receptor (CHO hGPR17) from Evi Kostenis' lab (Bonn University, Germany) were cultured at 37° C. in a humidified atmosphere of 5% CO2. Cells were grown in DMEM with Nutrient Mixture F-12 supplemented with hygromycin B (500 μg/mL) and blasticidin (30 μg/mL). Expression from the Flp-In locus was induced by treatment with doxycycline (1 μg/mL) for 16-20 h prior assays.
GPR17 activation can also recruit Gi-type G-protein signaling, resulting in a decrease of intracellular cyclic adenosine monophosphate (cAMP). Intracellular cAMP changes can be measured using the HTRF cAMP dynamic assay kit from CisBio (Codolet, France). Using homogenous time-resolved fluorescence technology (HTRF), the assay is based on competition between native cAMP produced by cells and cAMP labelled with the dye d2. The tracer binding was determined by an anti-cAMP antibody labeled with cryptate.
CHO hGPR17 were detached with PBS containing EDTA and dispatched in black 384-well plates with 5,000 cells per well. Cells were first incubated for 30 minutes at room temperature in HBSS Hepes (pH 7.4) containing vehicle or varying concentrations of test GPR17 antagonist/inverse agonist compounds. […] After 60 minutes incubation at room temperature, the reaction is terminated and the cells lysed by adding the d2 detection reagent and the cryptate reagent in 10 μL lysis buffer each according to manufacturer's instructions. After 60 minutes incubation, changes in cAMP concentrations are measured according to manufacturer's instructions using an Envision plate reader with laser excitation. All incubations were performed in duplicate. Data was analyzed using GraphPad Prism software using the 4-parameter logistic equation to measure MDL29,951 pEC50s in absence and presence of GPR17 antagonist/inverse agonist test compounds. Dose ratio (DR) were plotted against antagonist concentrations and Schild analysis provided estimated affinity pA2 of GPR17 antagonist/inverse agonist test compounds.
The activities of the Example compounds tested are depicted in the table below. The activity ranges A, B and C refer to pA2 values in the cAMP assay as follows: “A”: pA2<7.5, “B”: pA2 7.5<x≤8.5, “C”: pA2>8.5.

Compound | IC50 (GPR17 [1]) [nM] | Kb (GPR17 [2]) [nM]
N#Cc1ccc(NS(=O)(=O)c2c[nH]c3cc(C(F)(F)F)ccc23)c(F)c1 [Compound I-189, N-(4-cyano-2-fluorophenyl)-6-(trifluoromethyl)-1H-indole-3-sulfonamide] | < 3.16 | < 3.16
COc1cc(NS(=O)(=O)c2c[nH]c3cc(Cl)ccc23)ccc1C#N [Compound I-124, 6-chloro-N-(4-cyano-3-methoxyphenyl)-1H-indole-3-sulfonamide] | 3.16 to 31.6 | 3.16 to 31.6
O=S(=O)(Nc1ccc(Cl)cc1F)c1c[nH]c2c1ccc1cccnc12 [Compound I-65, N-(4-chloro-2-fluorophenyl)-1H-pyrrolo[3,2-h]quinoline-3-sulfonamide] | 3.16 to 31.6 | 3.16 to 31.6
N#Cc1ccc(NS(=O)(=O)c2coc3cc(Cl)ccc23)cc1 [Compound I-139, 6-chloro-N-(4-cyanophenyl)-1-benzofuran-3-sulfonamide] | 3.16 to 31.6 | > 31.6
COc1ccc2c(S(=O)(=O)Nc3cc(F)c(Br)cc3F)c[nH]c2n1 [Compound I-272, N-(4-bromo-2,5-difluorophenyl)-6-methoxy-1H-pyrrolo[2,3-b]pyridine-3-sulfonamide] | 3.16 to 31.6 | < 3.16
O=S(=O)(Nc1ccc(F)cc1F)c1c[nH]c2nc(Br)ccc12 [Compound I-91, 6-bromo-N-(2,4-difluorophenyl)-1H-pyrrolo[2,3-b]pyridine-3-sulfonamide] | > 31.6 | > 31.6
N#Cc1ccc(NS(=O)(=O)c2c[nH]c3cc(N=[N+]=[N-])ccc23)c(F)c1 [Compound I-335, 6-azido-N-(4-cyano-2-fluorophenyl)-1H-indole-3-sulfonamide] | 3.16 to 31.6 | 3.16 to 31.6
N#Cc1ccc(NS(=O)(=O)c2c[nH]c3cc(Cl)c(Br)cc23)c(F)c1 [Compound I-343, 5-bromo-6-chloro-N-(4-cyano-2-fluorophenyl)-1H-indole-3-sulfonamide] | 3.16 to 31.6 | < 3.16
N#Cc1ccc(NS(=O)(=O)c2c[nH]c3cc(Br)ccc23)c(F)c1 [Compound I-114, 6-bromo-N-(4-cyano-2-fluorophenyl)-1H-indole-3-sulfonamide] | < 3.16 | < 3.16
COc1ccc2c(S(=O)(=O)Nc3ccc(Br)cc3F)c[nH]c2c1 [Compound I-293, N-(4-bromo-2-fluorophenyl)-6-methoxy-1H-indole-3-sulfonamide] | 3.16 to 31.6 | 3.16 to 31.6
O=S(=O)(Nc1cccc2nonc12)c1c[nH]c2cc(Cl)ccc12 [Compound I-216, N-(2,1,3-benzoxadiazol-4-yl)-6-chloro-1H-indole-3-sulfonamide] | 3.16 to 31.6 | 3.16 to 31.6
N#Cc1ccc(NS(=O)(=O)c2c[nH]c3cc(OCC4CC4)ccc23)c(F)c1 [Compound I-220, N-(4-cyano-2-fluorophenyl)-6-(cyclopropylmethoxy)-1H-indole-3-sulfonamide] | 3.16 to 31.6 | 3.16 to 31.6
C[S+]([O-])c1ccc2c(S(=O)(=O)Nc3ccc(C#N)cc3)c[nH]c2c1 (stereo not shown) [Compound I-237, N-(4-cyanophenyl)-6-(methylsulfinyl)-1H-indole-3-sulfonamide] | > 31.6 | > 31.6
O=S(=O)(Nc1cccc2c1OCO2)c1c[nH]c2nc(Cl)ccc12 [Compound I-96, N-(1,3-benzodioxol-4-yl)-6-chloro-1H-pyrrolo[2,3-b]pyridine-3-sulfonamide] | 3.16 to 31.6 | > 31.6
O=S(=O)(Nc1ccc(I)cc1F)c1c[nH]c2nc(Cl)ccc12 [Compound I-94, 6-chloro-N-(2-fluoro-4-iodophenyl)-1H-pyrrolo[2,3-b]pyridine-3-sulfonamide] | 3.16 to 31.6 | 3.16 to 31.6
CS(=O)(=O)c1ccc2c(S(=O)(=O)Nc3cc(F)c(F)cc3F)c[nH]c2c1 [Compound I-239, 6-methylsulfonyl-N-(2,4,5-trifluorophenyl)-1H-indole-3-sulfonamide] | > 31.6 | > 31.6
COc1ccc2c(S(=O)(=O)Nc3cc(F)c(Cl)cc3F)c(F)[nH]c2c1 [Compound I-318, N-(4-chloro-2,5-difluorophenyl)-2-fluoro-6-methoxy-1H-indole-3-sulfonamide] | 3.16 to 31.6 | 3.16 to 31.6
N#Cc1ccc(NS(=O)(=O)c2c[nH]c3cc(Cl)ccc23)cc1 [Compound I-12, 6-chloro-N-(4-cyanophenyl)-1H-indole-3-sulfonamide] | < 3.16 | 3.16 to 31.6
COc1ccc2c(S(=O)(=O)Nc3ccc(C(F)(F)F)cc3F)c[nH]c2c1 [Compound I-287, N-(2-fluoro-4-(trifluoromethyl)phenyl)-6-methoxy-1H-indole-3-sulfonamide] | < 3.16 | 3.16 to 31.6

Next, values leading:

IC50 (GPR17 [1]) [nM] | Kb (GPR17 [2]) [nM] | Compound
3.16 to 31.6 | < 3.16 | O=S(=O)(Nc1ccc(C(F)(F)F)cc1F)c1c[nH]c2cc(Cl)ccc12 [Compound I-299, 6-chloro-N-[2-fluoro-4-(trifluoromethyl)phenyl]-1H-indole-3-sulfonamide]
< 3.16 | < 3.16 | COc1cc(Br)c(F)nc1NS(=O)(=O)c1c[nH]c2cc(Cl)ccc12 [Compound I-349, N-(5-bromo-6-fluoro-3-methoxypyridin-2-yl)-6-chloro-1H-indole-3-sulfonamide]
> 31.6 | > 31.6 | COc1cc(NS(=O)(=O)c2c[nH]c3cc(Cl)ccc23)ncc1Cl [Compound I-60, 6-chloro-N-(5-chloro-4-methoxypyridin-2-yl)-1H-indole-3-sulfonamide]
3.16 to 31.6 | 3.16 to 31.6 | N#Cc1cc(NS(=O)(=O)c2c[nH]c3cc(Cl)ccc23)c2c(c1)OC(F)(F)O2 [Compound I-132, 6-chloro-N-(6-cyano-2,2-difluoro-1,3-benzodioxol-4-yl)-1H-indole-3-sulfonamide]
3.16 to 31.6 | 3.16 to 31.6 | O=S(=O)(Nc1cc(F)c(OCC2CC2)cc1F)c1c[nH]c2cc(Cl)ccc12 [Compound I-260, 6-chloro-N-[4-(cyclopropylmethoxy)-2,5-difluorophenyl]-1H-indole-3-sulfonamide]
< 3.16 | < 3.16 | O=S(=O)(Nc1cc(F)c(C(F)(F)F)cc1F)c1c[nH]c2cc(Cl)ccc12 [Compound I-269, 6-chloro-N-[2,5-difluoro-4-(trifluoromethyl)phenyl]-1H-indole-3-sulfonamide]
< 3.16 | < 3.16 | COc1c(Cl)ccc2c(S(=O)(=O)Nc3nc(F)c(Cl)cc3F)c[nH]c12 [Compound I-310, 6-chloro-N-(5-chloro-3,6-difluoropyridin-2-yl)-7-methoxy-1H-indole-3-sulfonamide]
3.16 to 31.6 | 3.16 to 31.6 | CS(=O)(=O)c1ccc2c(S(=O)(=O)Nc3ccc(Cl)cc3F)c[nH]c2c1 [Compound I-50, N-(4-chloro-2-fluorophenyl)-6-(methylsulfonyl)-1H-indole-3-sulfonamide]
< 3.16 | < 3.16 | COc1cc(NS(=O)(=O)c2c[nH]c3cc(Cl)ccc23)c(F)cc1C#N [Compound I-143, 6-chloro-N-(4-cyano-2-fluoro-5-methoxyphenyl)-1H-indole-3-sulfonamide]
< 3.16 | < 3.16 | CCOC(=O)CCc1cc(F)c(NS(=O)(=O)c2c[nH]c3cc(Cl)ccc23)nc1F [Compound I-331, ethyl 3-(6-{[(6-chloro-1H-indol-3-yl)sulfonyl]amino}-2,5-difluoropyridin-3-yl)propanoate]
3.16 to 31.6 | 3.16 to 31.6 | O=S(=O)(Nc1nc(F)c(Cl)cc1F)c1c[nH]c2nc(Cl)ccc12 [Compound I-307, 6-chloro-N-(5-chloro-3,6-difluoropyridin-2-yl)-1H-pyrrolo[2,3-b]pyridine-3-sulfonamide]
3.16 to 31.6 | < 3.16 | C=Cc1cc(F)c(NS(=O)(=O)c2c[nH]c3cc(Cl)ccc23)nc1F [Compound I-337, 6-chloro-N-(5-ethenyl-3,6-difluoropyridin-2-yl)-1H-indole-3-sulfonamide]
3.16 to 31.6 | < 3.16 | Cc1c(Br)ccc2c(S(=O)(=O)Nc3ncc(Cl)cc3F)c[nH]c12 [Compound I-326, 6-bromo-N-(5-chloro-3-fluoropyridin-2-yl)-7-methyl-1H-indole-3-sulfonamide]
